In patent publication US20260184708A1, “PYRIDAZINONES AND METHODS OF USE THEREOF” (GFB (ABC), LLC, priority 2017, published 2026):

How the values were obtained:
TRPC5 [1] = target: T1, TRPC5 (Homo sapiens, UniProt Q9UL62); experiment: TRPC5 automated patch clamp assay (Qpatch), current block after rosiglitazone stimulation; format: cell-based; settings: Table 6; HEK293 cells overexpressing TRPC5; read-out: TRPC5-QPatch IC50
T1 construct: expressed in transfected cells; host or cells: HEK 293
T1 sequence (Q9UL62 1-973): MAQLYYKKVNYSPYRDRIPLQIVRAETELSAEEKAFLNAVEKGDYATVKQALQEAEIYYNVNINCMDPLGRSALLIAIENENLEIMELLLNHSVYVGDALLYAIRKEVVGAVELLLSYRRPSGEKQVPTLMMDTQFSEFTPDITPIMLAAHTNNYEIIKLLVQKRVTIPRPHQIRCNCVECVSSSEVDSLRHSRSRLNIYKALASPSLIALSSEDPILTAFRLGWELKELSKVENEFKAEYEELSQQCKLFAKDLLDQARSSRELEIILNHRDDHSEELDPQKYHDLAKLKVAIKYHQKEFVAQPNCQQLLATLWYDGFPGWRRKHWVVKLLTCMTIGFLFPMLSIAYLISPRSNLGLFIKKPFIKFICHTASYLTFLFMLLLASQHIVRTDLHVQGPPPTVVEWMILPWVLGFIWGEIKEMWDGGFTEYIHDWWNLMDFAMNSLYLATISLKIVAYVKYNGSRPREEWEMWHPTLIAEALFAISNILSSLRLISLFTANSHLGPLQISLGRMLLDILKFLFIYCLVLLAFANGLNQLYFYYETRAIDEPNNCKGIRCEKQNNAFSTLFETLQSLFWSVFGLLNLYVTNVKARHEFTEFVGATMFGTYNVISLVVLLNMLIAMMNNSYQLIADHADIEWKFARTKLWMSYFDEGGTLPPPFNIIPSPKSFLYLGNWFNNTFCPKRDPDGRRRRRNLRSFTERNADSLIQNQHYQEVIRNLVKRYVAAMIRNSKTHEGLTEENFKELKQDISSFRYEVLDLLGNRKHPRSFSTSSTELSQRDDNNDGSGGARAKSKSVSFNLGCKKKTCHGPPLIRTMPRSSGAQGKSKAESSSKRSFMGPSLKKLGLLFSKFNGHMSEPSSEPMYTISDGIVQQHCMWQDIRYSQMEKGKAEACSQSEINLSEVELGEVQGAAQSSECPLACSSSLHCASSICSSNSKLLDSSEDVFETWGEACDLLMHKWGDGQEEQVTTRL
Method in brief: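 HEK 293 cells expressing human TRPC5, whole-cell QPatch recording; 1 μM buffered free internal Ca2+, external pH 7.4. Ramps −100 to +100 mV over 300 ms every 10 s from −60 mV holding; channel activated by Rosiglitazone (30 uM) after ≥60 s control. IC50 from Hill fit.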

TRPC5 [2] = target: T1, TRPC5; experiment: TRPC5 fluorescence assay, membrane potential dye, flexstation (FLEX); format: cell-based; settings: Table 6; HEK293 cells overexpressing TRPC5
Description: HEK 293 cells expressing human TRPC5 cells were trypsinised, counted and seeded in black, clear-bottomed 96-well plates at a density of 50,000 cells per well and incubated overnight. Next day, the cells were loaded with membrane potential dye. Dye solution was made up according to the manufacturer's instructions in HEPES buffered Hank's balanced salt solution (HBSS). Dye solution (10 μL) was added to the wells and incubated at 37° C. for 1 hour. The test compounds and standard inhibitors were added to the wells and incubated at room temperature for 10 minutes. The plates were then placed in the flexstation and fluorescence monitored every 1.52 seconds. After 20 seconds, 10 μL of the appropriate standard agonist was added and the fluorescence monitored for 2 minutes at ex/emm: 530 nm/565 nm.

Cc1ccccc1-n1cnc2c1CCN(c1cn[nH]c(=O)c1Cl)C2
IC50 (TRPC5 [1]): 1 to 5 µM | IC50 (TRPC5 [2]): 10 to 500 µM

O=c1[nH]ncc(N2CCc3c(ncn3Cc3cccnc3OC(F)(F)F)C2)c1Cl
IC50 (TRPC5 [1]): 1e-05 to 1 µM | IC50 (TRPC5 [2]): 1e-05 to 1 µM

O=c1[nH]ncc(N2CCc3ncn(Cc4ccc(C(F)(F)F)cc4)c3C2)c1Cl
IC50 (TRPC5 [1]): 10 to 500 µM | IC50 (TRPC5 [2]): 1 to 5 µM

O=c1[nH]ncc(N2CCc3c(ncn3-c3cccc(C(F)(F)F)c3)C2)c1Cl
IC50 (TRPC5 [1]): 1 to 5 µM | IC50 (TRPC5 [2]): 1e-05 to 1 µM

O=c1[nH]ncc(N2CCc3c(ncn3Cc3cccnc3C(F)(F)F)C2)c1Cl
IC50 (TRPC5 [1]): 1 to 5 µM | IC50 (TRPC5 [2]): 1 to 5 µM

O=c1[nH]ncc(N2CCc3c(ncn3Cc3ccccc3C(F)(F)F)C2)c1C1CC1
IC50 (TRPC5 [1]): 5 to 10 µM | IC50 (TRPC5 [2]): 5 to 10 µM

Cc1ncccc1Cn1cnc2c1CCN(c1cn[nH]c(=O)c1Cl)C2
IC50 (TRPC5 [1]): 1 to 5 µM | IC50 (TRPC5 [2]): 1 to 5 µM

O=c1[nH]ncc(N2CCc3c(ncn3Cc3ccc(C(F)(F)F)nc3)C2)c1Cl
IC50 (TRPC5 [1]): 10 to 500 µM | IC50 (TRPC5 [2]): 10 to 500 µM

O=c1[nH]ncc(N2CCc3c(cnn3Cc3ccccc3C(F)(F)F)C2)c1Cl
IC50 (TRPC5 [1]): 1e-05 to 1 µM | IC50 (TRPC5 [2]): 1e-05 to 1 µM

Cc1ccccc1-n1cc2c(n1)CCN(c1cn[nH]c(=O)c1Cl)C2
IC50 (TRPC5 [1]): 10 to 500 µM | IC50 (TRPC5 [2]): 1 to 5 µM

O=c1[nH]ncc(N2CCc3c(ncn3Cc3ccc(C(F)(F)F)cc3)C2)c1C1CC1
IC50 (TRPC5 [1]): 10 to 500 µM | IC50 (TRPC5 [2]): 10 to 500 µM

O=c1[nH]ncc(N2CCc3nn(-c4ccccc4C(F)(F)F)cc3C2)c1Cl
IC50 (TRPC5 [1]): 10 to 500 µM | IC50 (TRPC5 [2]): 1e-05 to 1 µM

Cc1ccccc1-n1ncc2c1CCN(c1cn[nH]c(=O)c1Cl)C2
IC50 (TRPC5 [1]): 1e-05 to 1 µM | IC50 (TRPC5 [2]): 1e-05 to 1 µM

O=c1[nH]ncc(N2CCc3c(ncn3Cc3cnccc3C(F)(F)F)C2)c1Cl
IC50 (TRPC5 [1]): 1 to 5 µM | IC50 (TRPC5 [2]): 1e-05 to 1 µM

CCc1ncccc1Cn1cnc2c1CCN(c1cn[nH]c(=O)c1Cl)C2
IC50 (TRPC5 [1]): 1e-05 to 1 µM | IC50 (TRPC5 [2]): 1e-05 to 1 µM

O=c1[nH]ncc(N2CCc3c(ncn3Cc3ccc(F)nc3C(F)(F)F)C2)c1Cl
IC50 (TRPC5 [1]): 1e-05 to 1 µM | IC50 (TRPC5 [2]): 1 to 5 µM

O=c1[nH]ncc(N2CCc3c(cnn3-c3ccccc3OC(F)(F)F)C2)c1Cl
IC50 (TRPC5 [1]): 1 to 5 µM | IC50 (TRPC5 [2]): 1e-05 to 1 µM

CCc1cccnc1Cn1cnc2c1CCN(c1cn[nH]c(=O)c1Cl)C2
IC50 (TRPC5 [1]): 1 to 5 µM | IC50 (TRPC5 [2]): 1e-05 to 1 µM

CC[C@@H](c1cncc(F)c1)n1cnc2c1CCN(c1cn[nH]c(=O)c1Cl)C2
IC50 (TRPC5 [1]): 5 to 10 µM | IC50 (TRPC5 [2]): 1e-05 to 1 µM

Cc1nc2c(n1Cc1ccccc1C(F)(F)F)CCN(c1cn[nH]c(=O)c1Cl)C2
IC50 (TRPC5 [1]): 1e-05 to 1 µM | IC50 (TRPC5 [2]): 1e-05 to 1 µM

O=c1[nH]ncc(N2CCc3c(ncn3Cc3ncccc3C(F)(F)F)C2)c1Cl
IC50 (TRPC5 [1]): 1 to 5 µM | IC50 (TRPC5 [2]): 1e-05 to 1 µM

O=c1[nH]ncc(N2CCc3c(ncn3Cc3ccncc3C(F)(F)F)C2)c1Cl
IC50 (TRPC5 [1]): 1 to 5 µM | IC50 (TRPC5 [2]): 1e-05 to 1 µM

O=c1[nH]ncc(N2CCc3c(ncn3C3CCCCC3)C2)c1Cl
IC50 (TRPC5 [1]): 5 to 10 µM | IC50 (TRPC5 [2]): 10 to 500 µM

O=c1[nH]ncc(N2CCc3c(nnn3Cc3ccccc3C(F)(F)F)C2)c1Br
IC50 (TRPC5 [1]): 1 to 5 µM | IC50 (TRPC5 [2]): 1e-05 to 1 µM

CCc1ncccc1Cn1nnc2c1CCN(c1cn[nH]c(=O)c1Cl)C2
IC50 (TRPC5 [1]): 1 to 5 µM | IC50 (TRPC5 [2]): 1e-05 to 1 µM

O=c1[nH]ncc(N2CCc3c(nnn3Cc3ccc(F)cc3C(F)(F)F)C2)c1Cl
IC50 (TRPC5 [1]): 1e-05 to 1 µM | IC50 (TRPC5 [2]): 1e-05 to 1 µM

N#Cc1c(N2CCc3c(ncn3Cc3ccccc3C(F)F)C2)cn[nH]c1=O
IC50 (TRPC5 [1]): 1 to 5 µM | IC50 (TRPC5 [2]): 1e-05 to 1 µM

O=c1[nH]ncc(N2CCc3c(nnn3Cc3ccccc3C(F)F)C2)c1Cl
IC50 (TRPC5 [1]): 1e-05 to 1 µM | IC50 (TRPC5 [2]): 1e-05 to 1 µM

O=c1[nH]ncc(N2CCc3c(nnn3C3CCCCC3)C2)c1Cl
IC50 (TRPC5 [1]): 5 to 10 µM | IC50 (TRPC5 [2]): 10 to 500 µM

N#Cc1c(N2CCc3c(nnn3Cc3ccccc3C(F)F)C2)cn[nH]c1=O
IC50 (TRPC5 [1]): 1 to 5 µM | IC50 (TRPC5 [2]): 10 to 500 µM

N#Cc1c(N2CCc3c(nnn3Cc3ccc(F)cc3C(F)(F)F)C2)cn[nH]c1=O
IC50 (TRPC5 [1]): 1 to 5 µM | IC50 (TRPC5 [2]): 10 to 500 µM

O=c1[nH]ncc(N2CCc3c(ncn3Cc3ccccc3C(F)(F)F)C2)c1Br [drawing 838]
IC50 (TRPC5 [1]): 1 to 5 µM | IC50 (TRPC5 [2]): 1e-05 to 1 µM

Cc1ccccc1Cn1cnc2c1CCN(c1cn[nH]c(=O)c1Cl)C2 [drawing 840]
IC50 (TRPC5 [1]): 1e-05 to 1 µM | IC50 (TRPC5 [2]): 1e-05 to 1 µM
